Source: US20090124631A1, “Combination Therapy” (priority 2007, published 2009)

What was measured:
[1] = tested on: TSP-1 (THBS1) transcription in human cancer HCT15 cells; assay: Microarray analysis of TSP-1 (THBS1) transcription in HCT15 cells; assay type: cell-based; settings: HCT15 cells in vitro, 24 hours
Text: Total RNAs were extracted and RNA quality analysis was done using Agilent 2100 bioanalyzer and Agilent's RNA Labchip kits. RNAs were labeled with either Cy3 or Cy5 using Agilent's optimized labeling kits and hybridized to Human whole genome 44K Oligo Microarray (Agilent, Palo Alto, Calif.). Slides were scanned using DNA microarry scanner from Agilent and the raw data was extracted using Agilent's image analysis tool (feature extraction software). Normalization and statistical analysis were performed using GeneSpring software. Biological analysis was performed using Biointerpreter software.

[2] = tested on: human H460 non-small cell lung tumor, Du145 prostate tumor, TSU-Pr1 prostate tumor, and AZ521 gastric tumor xenograft; assay: Xenograft combination studies with taxol (Example 15); assay type: in vivo, mouse; settings: oral administration, nude mice with human lung, prostate and gastric tumors
Experimental: Antitumor studies were done using human H460 non-small cell lung tumor, Du145 prostate tumor, TSU-Pr1 prostate tumor, and AZ521 gastric tumor xenograft model in male BALBc/A nude mice (from Japan Crea Inc., Japan). Male nude mice were used at age 8-10 weeks. Human carcinoma cells were injected subcutaneously in the animal flank and allowed to form solid tumors. Tumor fragments (about 2 mm^3 fragments) were then removed and implanted subcutaneously through a small surgical incision to the right flank of other animals. […] Tumor volumes and gross body weight of animals were monitored twice weekly for up to 2 weeks for AZ-521 and TSU-Pr1, or 4 weeks for H460 and Du145 xenografts. Each experimental group contained 6 animals.

[3] = tested on: TSP-1 transcription in mouse stromal cells in implanted H460 tumors; assay: TSP-1 transcription in mouse stromal cells of implanted H460 tumors; assay type: in vivo; settings: Compound A 100 mg/kg, Compound B 40 mg/kg, 5 repeated oral doses
Experimental: […] Each group contains three mice. […] The expression level of TSP-1 mRNA was detected by ABI7700 analyzer using probe/primer pre-mixture reagent (ABI, Cat# Mm01335418 ml) and TaqMan® Universal PCR Master Mix (ABI, Cat# 430-4437) as described in the ABI's protocol.

HDAC2 = biological target: T1, HDAC2 (Homo sapiens, UniProt Q92769); assay: Fluorescence-based HDAC enzyme assay, recombinant HDAC2; assay type: biochemical; settings: recombinant human HDAC enzyme in vitro; read-out: IC50 (μM) HD2
T1 construct: cDNAs corresponding to the full length human HDAC1, 2, 3 and 11 were cloned into pBlueBac4.5 vector; FLAG (C); made in house; host or cells: Sf-9 insect cells (baculovirus)
Text: cDNAs of human HDAC1-8 and 11 were generated by RT-PCR reactions using primers complementary to the 5′ and 3′ coding sequence of human HDAC gene sequences in GenBank. cDNAs corresponding to the full length human HDAC1, 2, 3 and 11 were cloned into pBlueBac4.5 vector (Invitrogen). The constructs were used to generate recombinant baculoviruses using the Bac-N-Blue™ DNA according to the manufacturer's instructions (Invitrogen). The recombinant HDAC1, 2, 3, 11 proteins produced harbor a FLAG tag at their C-termini. cDNAs encoding truncated versions of HDAC4, 5 and 7 encompassing their deacetylase domains were cloned into pDEST10 as an N-terminal hexahistidine fusion protein and recombinant baculoviruses were generated using the Bac-to-Bac™ Baculovirus expression system (Invitrogen). HDAC6 and 8 were cloned as full length N-terminally His-tagged protein. All HDAC proteins were expressed in insect Sf-9 cells (Spodoptera frugiperdai) upon infection with recombinant baculovirus. HDAC1 enzyme was purified from the Q-sepharose FF column (Amersham Pharmacia Biotech, Baie d'Urfe QC, Canada) followed by an anti-FLAG immunoaffinity column (Sigma). […] HDAC4, 5, 6, 7 and 8 were purified using either Ni-NTA resin (QIAGEN Mississauga ON, Canada) or His-Select resin (Sigma) with step washes and elution with different concentrations of imidazole in Buffer containing 25 mM Tris (or NaPO4) pH 8.0, 10% glycerol and 150 mM or 500 mM NaCl.
Boc-Lys(Ac)-AMC (for HDAC1, 2, 3, 6, and 8 enzymes), which was purchased from Bachem Biosciences Inc., (King of Prussia, Philadelphia) were added into enzyme-compound mixture and incubated at 37° C. For HDAC4, 5, 7 assays, Boc-Lys(TFA)-AMC, which was synthesized in house, was used as substrate and 0.1% BSA was added to the buffer. […] Reaction time was predetermined to ensure that reaction was linear for the incubation time. Reaction was stopped by adding a freshly prepared trypsin (1 mg/ml final concentration) with 1 μM TSA (Biomol) in assay buffer. After 30 minutes, fluorescence was measured using a fluorometer (SPECTRAMAX GeminiXS, Molecular Devices, Sunnylvale, Calif.).

[4] = tested on: human Du145 prostate tumor xenograft; assay: Du145 prostate tumor xenograft, combination with taxol; assay type: in vivo, mouse; settings: Du145, oral once daily 14 days with taxol 60 mg/kg i.v.
Experimental: Antitumor studies were done using human Du145 prostate tumor xenograft model in male BALBc/A nude mice (from Japan Crea Inc., Japan). Male nude mice were used at age 8-10 weeks. Human carcinoma cells were injected subcutaneously in the animal flank and allowed to form solid tumors. Tumor fragments (about 2 mm^2 fragments) were then removed and implanted subcutaneously to the right flank of other animals. When the tumor sizes reached about 100 to 200 mm^3, recipient animals were treated with Compound D, Compound E, Compound F, Compound G or Compound H (suspended with 0.5% HPMC) by oral administration alone, or taxol by i.v. injection (60 mg/kg), or combination of taxol with oral administration of Compound D, Compound E, Compound F, Compound G, Compound H. Typically, taxol was administered once per week by iv injection on the first day as a single administration, while Compound D, Compound E, Compound F, Compound G, or Compound H were administered once daily for 14 days. Tumor volumes and gross body weight of animals were monitored twice weekly for up to 2 weeks. Each experimental group contained at least 6 animals.

T1 sequence (Q92769 whole entry): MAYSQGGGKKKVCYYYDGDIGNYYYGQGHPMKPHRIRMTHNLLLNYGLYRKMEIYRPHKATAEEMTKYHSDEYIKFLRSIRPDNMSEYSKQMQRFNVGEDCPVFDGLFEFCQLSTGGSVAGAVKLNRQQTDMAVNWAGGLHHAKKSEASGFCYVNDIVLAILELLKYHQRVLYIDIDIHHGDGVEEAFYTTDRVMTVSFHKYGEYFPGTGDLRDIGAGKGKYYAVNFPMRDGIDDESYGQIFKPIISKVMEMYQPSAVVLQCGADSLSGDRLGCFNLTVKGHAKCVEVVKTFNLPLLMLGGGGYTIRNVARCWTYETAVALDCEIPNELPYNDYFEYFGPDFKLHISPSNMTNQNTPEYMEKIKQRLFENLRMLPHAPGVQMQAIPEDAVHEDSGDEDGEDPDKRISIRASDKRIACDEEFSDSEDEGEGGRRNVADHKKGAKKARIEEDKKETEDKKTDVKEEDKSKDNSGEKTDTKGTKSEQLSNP

SMILES	IC50 (HDAC2) [µM]	TSP-1 (THBS1) transcription [1]	antitumor activity of taxol [2]	TSP-1 transcription in mouse stromal cells [3]	antitumor activity of taxol [4]
Nc1ccccc1NC(=O)c1ccc(CNc2nccc(-c3cccnc3)n2)cc1 [Compound A]		induction	Potentiation	induction	
Nc1ccccc1NC(=O)c1ccc(N2CC[C@H](Nc3cccnc3)C2)cc1 [Compound B]	0.5	induction	Potentiation	induction	
Nc1ccc(-c2ccccc2)cc1NC(=O)c1ccc(N2CC[C@H](N)C2)cc1 [Compound D]	0.09				Potentiation

The remaining compounds from weak to strong by IC50 (HDAC2), led by results:

IC50 (HDAC2) [µM]	SMILES	TSP-1 (THBS1) transcription [1]	antitumor activity of taxol [2]	TSP-1 transcription in mouse stromal cells [3]	antitumor activity of taxol [4]
0.1	CN1CCN(c2ccc(C(=O)Nc3cc(-c4ccccn4)ccc3N)cc2)CC1 [Compound F]				Potentiation
0.1	CN1CCN(c2ccc(C(=O)Nc3cc(-c4ccncc4)ccc3N)cc2)CC1 [Compound G]				Potentiation
0.09	CC(C)N1CCN(c2ccc(C(=O)Nc3cc(-c4ccncc4)ccc3N)cc2)CC1 [Compound H]				Potentiation
0.08	Nc1ccc(-c2ccccc2)cc1NC(=O)c1ccc(N2CCC(N)CC2)cc1 [Compound E]				Potentiation
